Consider nine compounds from patent publication US20030022821A1, “Bioactive peptides” (priority 1998, published 2003).

Common to all, as to format: cell-based
The test system of one series is human red blood cells. The experiment in a line: Hemolytic assay. As to conditions: red cells of human. As for the experimental part: The hemolytic activities of the peptides were determined using fresh human red blood cells. 8 ml blood was taken from a healthy person. 4 ml blood was transferred to a polycarbonate tube containing heparin to a final concentration of 10 U/ml, and the remaining 4 ml blood was transferred to a glass tube containing EDTA with final concentration of 15% EDTA. The erythrocytes were isolated from heparin-treated blood by centrifugation in 1500 rpm for 10 min and washed three times with phosphate-buffered saline (PBS) to remove plasma and buffy coat. The cell pellet was resuspended in PBS to make the final volume of 4 ml. The peptide was diluted to a concentration of 2 mg/ml and 0.1 mg/ml. The peptide was further diluted to the concentrations as stated in Table 15. For each tube PBS was added first, then RBCs and peptide solutions. The hematocrit in the blood treated with EDTA was determined after 30 min with Sysmex K-1000, and the resuspended RBCs were diluted into 10% hematocrit. RBCs in PBS (1%) with and without peptides (Table 15) were incubated in a shaker at […] for 1 hour and then centrifuged at 4000 rpm for 5 min. The supernatant were carefully transferred to new polycarbonate tubes and the absorbance of the supernatant was measured at 540 nm. Baseline hemolysis was hemoglobin released in the presence of PBS, and 100% hemolysis was hemoglobin released in the presence of 0.1% Triton X-100.

Series [1] deals with Escherichia coli ATCC 25922. In short, it runs like this: (§1)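 Strains are stored at −70° C, grown to mid-logarithmic phase in 2% Bacto Peptone water, then exposed to peptides in 1% Bacto Peptone water by standard microdilution with 2×10^6 CFU/ml. Each assay runs in triplicate.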
Series [2] concerns Staphylococcus aureus ATCC 25923. In short, it runs like this:
as §1

Converted amounts (≈) assume the structure as drawn. Like-named read-outs stand apart in the source and are kept apart here. Peptide text beside a SMILES is read from it. * marks the point of attachment. Acm = CC(=O)NC*

For the compound `CSCC[C@H](NC(=O)[C@H](CCCNC(=N)N)NC(=O)[C@H](Cc1c[nH]c2ccccc12)NC(=O)[C@H](CCC(N)=O)NC(=O)[C@H](C)NC(=O)[C@H](CCCNC(=N)N)NC(=O)[C@H](CCCNC(=N)N)NC(=O)[C@H](CSCNC(C)=O)NC(=O)[C@H](CCCCN)NC(=O)[C@@H](N)Cc1ccccc1)C(=O)N[C@@H](CCCCN)C(=O)N[C@@H](CCCCN)C(=O)N[C@@H](CC(C)C)C(=O)NCC(=O)N[C@@H](C)C(=O)O` [LFB A6] (H-FKC(Acm)RRAQWRMKKLGA-OH; N-terminus assumed), in the series on human red blood cells, the “% Hemolysis 10 μg/ml” value is 2.78% and the “% Hemolysis 100 μg/ml” value was 3.27%. Further, the “MIC E. coli” value in series [1] (ATCC 25922) is over 200 µg/mL. The “MIC S. aureus” value in series [2] (ATCC 25923) is over 200 µg/mL.
`CSCC[C@H](NC(=O)[C@H](CCCNC(=N)N)NC(=O)[C@H](Cc1c[nH]c2ccccc12)NC(=O)[C@H](CCC(N)=O)NC(=O)[C@H](Cc1c[nH]c2ccccc12)NC(=O)[C@H](CCCNC(=N)N)NC(=O)[C@H](Cc1ccccc1)NC(=O)[C@H](CSCNC(C)=O)NC(=O)[C@H](CCCCN)NC(=O)[C@@H](N)Cc1ccccc1)C(=O)N[C@@H](CCCCN)C(=O)N[C@@H](CCCCN)C(=O)N[C@@H](CC(C)C)C(=O)NCC(=O)N[C@@H](C)C(=O)O` [LFB F4] (H-FKC(Acm)FRWQWRMKKLGA-OH; N-terminus and C-terminus assumed): in the series with human red blood cells, the “% Hemolysis 10 μg/ml” value is reported as 2.4%. For the same compound, the “% Hemolysis 100 μg/ml” value in the series on human red blood cells is listed as 3.2%. Besides, the “MIC E. coli ATCC 25922” value in series [1] (ATCC 25922) came to 20 µg/mL; in series [1] (Table 1, value in brackets), 10 µM. The “MIC E. coli” value in series [1] (Table 12) is 20 µg/mL (≈ 9.73 µM). Also, the “MIC S. aureus ATCC 25923” value stood at 200 µg/mL in series [2] (ATCC 25923) and 100 µM in series [2] (Table 1, value in brackets). Moreover, the “MIC S. aureus” value in series [2] (Table 12) is 200 µg/mL (≈ 97.3 µM).
Consider `CSCC[C@H](NC(=O)[C@H](CCCNC(=N)N)NC(=O)[C@H](Cc1c(S(=O)(=O)c2c(C)c(C)c3c(c2C)CCC(C)(C)O3)[nH]c2ccccc12)NC(=O)[C@H](CCC(N)=O)NC(=O)[C@H](Cc1ccc2ccccc2c1)NC(=O)[C@H](CCCNC(=N)N)NC(=O)[C@H](CCCNC(=N)N)NC(=O)[C@H](CSCNC(C)=O)NC(=O)[C@H](CCCCN)NC(=O)[C@@H](N)Cc1ccccc1)C(=O)N[C@@H](CCCCN)C(=O)N[C@@H](CCCCN)C(=O)N[C@@H](CC(C)C)C(=O)NCC(=O)N[C@@H](C)C(=O)O` [LFB Nal6 PMC], for which, in the series on human red blood cells, the “% Hemolysis 10 μg/ml” value is on record as 2.8% and the “% Hemolysis 100 μg/ml” value stood at 17.8%. For the same compound, the “MIC E. coli” value in series [1] (ATCC 25922) is 25 µg/mL (≈ 10.7 µM). In addition, in series [2] (ATCC 25923), the “MIC S. aureus” value stood at 20 µg/mL (≈ 8.54 µM).
The like results for `CSCC[C@H](NC(=O)[C@H](CCCNC(=N)N)NC(=O)[C@H](Cc1c[nH]c2ccccc12)NC(=O)[C@H](CCC(N)=O)NC(=O)[C@H](Cc1ccc2ccccc2c1)NC(=O)[C@H](CCCNC(=N)N)NC(=O)[C@H](CCCNC(=N)N)NC(=O)[C@H](CSCNC(C)=O)NC(=O)[C@H](CCCCN)NC(=O)[C@@H](N)Cc1ccccc1)C(=O)N[C@@H](CCCCN)C(=O)N[C@@H](CCCCN)C(=O)N[C@@H](CC(C)C)C(=O)NCC(=O)N[C@@H](C)C(=O)O` [LFB Nal6] were, in that order, 2.2%, 4.4%, 20 µg/mL (≈ 9.63 µM) and 75 µg/mL (≈ 36.1 µM).
The like results for `CSCC[C@H](NC(=O)[C@H](CCCNC(=N)N)NC(=O)[C@H](Cc1ccc2ccccc2c1)NC(=O)[C@H](CCC(N)=O)NC(=O)[C@H](Cc1c(S(=O)(=O)c2c(C)c(C)c3c(c2C)CCC(C)(C)O3)[nH]c2ccccc12)NC(=O)[C@H](CCCNC(=N)N)NC(=O)[C@H](CCCNC(=N)N)NC(=O)[C@H](CSCNC(C)=O)NC(=O)[C@H](CCCCN)NC(=O)[C@@H](N)Cc1ccccc1)C(=O)N[C@@H](CCCCN)C(=O)N[C@@H](CCCCN)C(=O)N[C@@H](CC(C)C)C(=O)NCC(=O)N[C@@H](C)C(=O)O` [LFB Nal8 PMC] were, in that order, 6.96%, 18.86%, 20 µg/mL (≈ 8.54 µM) and 10 µg/mL (≈ 4.27 µM).
Taken in the same sequence, the figures for `CSCC[C@H](NC(=O)[C@H](CCCNC(=N)N)NC(=O)[C@H](Cc1ccc2ccccc2c1)NC(=O)[C@H](CCC(N)=O)NC(=O)[C@H](Cc1c[nH]c2ccccc12)NC(=O)[C@H](CCCNC(=N)N)NC(=O)[C@H](CCCNC(=N)N)NC(=O)[C@H](CSCNC(C)=O)NC(=O)[C@H](CCCCN)NC(=O)[C@@H](N)Cc1ccccc1)C(=O)N[C@@H](CCCCN)C(=O)N[C@@H](CCCCN)C(=O)N[C@@H](CC(C)C)C(=O)NCC(=O)N[C@@H](C)C(=O)O` [LFB Nal8] were 3%, 4.7%, 10 µg/mL (≈ 4.82 µM) and 50 µg/mL (≈ 24.1 µM).
Take `CSCC[C@H](NC(=O)[C@H](CCCNC(=N)N)NC(=O)[C@H](Cc1c[nH]c2ccccc12)NC(=O)[C@H](CCC(N)=O)NC(=O)[C@H](Cc1c[nH]c2ccccc12)NC(=O)[C@H](CCCNC(=N)N)NC(=O)[C@H](CCCNC(=N)N)NC(=O)[C@H](Cc1c[nH]c2ccccc12)NC(=O)[C@H](CCCCN)NC(=O)[C@@H](N)Cc1ccccc1)C(=O)N[C@@H](CCCCN)C(=O)N[C@@H](CCCCN)C(=O)N[C@@H](CC(C)C)C(=O)NCC(=O)N[C@@H](C)C(=O)O` [LFB W3, H2N-Phe-Lys-Trp-Arg-Arg-Trp-Gln-Trp-Arg-Met-Lys-Lys-Leu-Gly-Ala-COOH]: in the series on human red blood cells, the “% Hemolysis 10 μg/ml” value turned out to be 2.3%. For the same compound, the “% Hemolysis 100 μg/ml” value with human red blood cells was 3.8%. The “MIC E. coli” value in series [1] (ATCC 25922) and in series [1] (Table 6) was 20 µg/mL (≈ 9.63 µM) in each case. Also, the “MIC S. aureus” value in series [2] (ATCC 25923) is 20 µg/mL (≈ 9.63 µM); in series [2] (Table 6, unit assumed) it was 20 µg/mL (≈ 9.63 µM).
`CSCC[C@H](NC(=O)[C@H](CCCNC(=N)N)NC(=O)[C@H](Cc1c[nH]c2ccccc12)NC(=O)[C@H](CCC(N)=O)NC(=O)[C@H](Cc1c[nH]c2ccccc12)NC(=O)[C@H](CCCNC(=N)N)NC(=O)[C@H](CCCNC(=N)N)NC(=O)[C@H](CSCNC(C)=O)NC(=O)[C@H](CCCCN)NC(=O)[C@@H](N)Cc1ccccc1)C(=O)N[C@@H](CCCCN)C(=O)N[C@@H](CCCCN)C(=O)N[C@@H](CC(C)C)C(=O)N[C@@H](Cc1c[nH]c2ccccc12)C(=O)N[C@@H](C)C(=O)O` [LFB W14, H2N-Phe-Lys-Cys-Arg-Arg-Trp-Gln-Trp-Arg-Met-Lys-Lys-Leu-Trp-Ala-COOH] (H-FKC(Acm)RRWQWRMKKLWA-OH): the “% Hemolysis 10 μg/ml” value in the series on human red blood cells is recorded as 3%. Besides, the “% Hemolysis 100 μg/ml” value in the series on human red blood cells came out at 4.1%. Moreover, the “MIC E. coli” value in series [1] (ATCC 25922) and in series [1] (Table 6) was 20 µg/mL (≈ 9.11 µM) throughout. Also, the “MIC S. aureus” value in series [2] (ATCC 25923) was 25 µg/mL (≈ 11.4 µM); in series [2] (Table 6, unit assumed), 25 µg/mL (≈ 11.4 µM).
As for `CSCC[C@H](NC(=O)[C@H](CCC(=O)O)NC(=O)[C@H](Cc1c[nH]c2ccccc12)NC(=O)[C@H](CCC(N)=O)NC(=O)[C@H](Cc1c[nH]c2ccccc12)NC(=O)[C@H](CCCNC(=N)N)NC(=O)[C@H](CC(C)C)NC(=O)[C@H](CSCNC(C)=O)NC(=O)[C@H](CCCCN)NC(=O)[C@H](C)N)C(=O)N[C@@H](CCCNC(=N)N)C(=O)N[C@@H](CCCCN)C(=O)N[C@H](C(=O)NCC(=O)NCC(=O)O)C(C)C` [LFM A1 W8] (H-AKC(Acm)LRWQWEMRKVGG-OH; N-terminus assumed), in the series on human red blood cells, the “% Hemolysis 10 μg/ml” value is reported as 2.4% and the “% Hemolysis 100 μg/ml” value is given as 3%. Further, in series [1] (ATCC 25922), the “MIC E. coli” value stood at 750 µg/mL (≈ 391 µM). Moreover, in series [2] (ATCC 25923), the “MIC S. aureus” value was over 1000 µg/mL.
